Patent publication US7462600B2, “Macrolides” (Pfizer Inc, priority 2004, dated 2008)
Values after ≈ are worked out from the molar mass of the structure shown.

How the values were obtained:
Assay type in all cases: cell-based
[1] = system: Streptococcus pneumoniae 1016; test: MIC, microtiter broth dilution (NCCLS M100-S14), S. pneumoniae 1016 (susceptible); details: Streptococcus pneumoniae 1016
Procedure, shortened: (§1)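 NCCLS M100-S14 rules govern how the microdilution MICs are interpreted. Each compound starts as a 40 mg/ml solution in DMSO before dilution.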

[2] = system: Streptococcus pneumoniae 1095; details: Streptococcus pneumoniae 1095; microtiter broth dilution
Procedure, shortened: as §1

[3] = system: Streptococcus pneumoniae 1175; details: Streptococcus pneumoniae 1175; microtiter broth dilution
Procedure, shortened: as §1

[4] = system: Streptococcus pyogenes 1079; test: MIC, microtiter broth dilution (NCCLS M100-S14), S. pyogenes 1079 (ermB); details: Streptococcus pyogenes 1079
Procedure, shortened: as §1

[5] = system: Haemophilus influenzae 1218; test: MIC, microtiter broth dilution (NCCLS M100-S14), H. influenzae 1218 (susceptible); details: Haemophilus influenzae 1218
Procedure, shortened: as §1

| SMILES | MIC S. pneumo. 1016 [1] [µg/mL] | MIC S. pneumo. 1095 [2] [µg/mL] | MIC S. pneumo. 1175 [3] [µg/mL] | MIC S. pyogenes 1079 [4] [µg/mL] | MIC H. influenzae 1218 [5] [µg/mL] |
| --- | --- | --- | --- | --- | --- |
| CCC1OC(=O)C(C)C(=O)C(C)C(OC2OC(C)CC(N(C)C)C2O)C(C)(OC)CC(C)C(=O)C(C)C2N(C3CN(C(c4ccccc4)c4ccncc4)C3)C(=O)OC12C (centres unmarked) [Example 1.69, 3-descladinosyl-11,12-dideoxy-6-O-methyl-3-oxo-12,11-(oxycarbonyl-(1-(phenyl-(pyridin-4-yl)-methyl)-azetidin-3-yl)-imino)erythromycin A] | <0.06 | <0.06 | <0.06 | 8 (≈ 9.58 µM) | 1 (≈ 1.2 µM) |
| CCC1OC(=O)C(C)C(=O)C(C)C(OC2OC(C)CC(N(C)C)C2O)C(C)(OC)CC(C)C(=O)C(C)C2N(C3CN(Cc4ccc(OC)c5ncccc45)C3)C(=O)OC12C (centres unmarked) [Example 1.70, 3-descladinosyl-11,12-dideoxy-6-O-methyl-3-oxo-12,11-(oxycarbonyl-(1-(8-methoxyquinoline-5-methyl)-azetidin-3-yl)-imino)-erythromycin A] | <0.063 | <0.063 | <0.063 | 2 (≈ 2.38 µM) | 1 (≈ 1.19 µM) |
| CCC1OC(=O)C(C)C(=O)C(C)C(OC2OC(C)CC(N(C)C)C2O)C(C)(OC)CC(C)C(=O)C(C)C2N(C3CN(Cc4c(OC)cnc5ccccc45)C3)C(=O)OC12C (centres unmarked) [Example 1.71, 3-descladinosyl-11,12-dideoxy-6-O-methyl-3-oxo-12,11-(oxycarbonyl-(1-(3-methoxyquinoline-4-methyl)-azetidin-3-yl)-imino)-erythromycin A] | <0.063 | <0.063 | <0.063 | <0.063 | 1 (≈ 1.19 µM) |
| CCC1OC(=O)C(C)C(=O)C(C)C(OC2OC(C)CC(N(C)C)C2O)C(C)(OC)CC(C)C(=O)C(C)C2N(C3CN(Cc4c(OC)cnc5ncccc45)C3)C(=O)OC12C (centres unmarked) [Example 1.72, 3-descladinosyl-11,12-dideoxy-6-O-methyl-3-oxo-12,11-(oxycarbonyl-(1-(3-methoxy-1,8-naphthyridine-4-methyl)-azetidin-3-yl)-imino)-erythromycin A] | <0.063 | <0.063 | <0.063 | <0.063 | 1 (≈ 1.19 µM) |
| CC[C@H]1OC(=O)[C@H](C)C(=O)[C@H](C)[C@@H](O[C@@H]2O[C@H](C)C[C@H](N(C)C)[C@H]2O)[C@](C)(OC)C[C@@H](C)C(=O)[C@H](C)[C@H]2N(C3CN(Cc4c(C#N)cnc5ccccc45)C3)C(=O)O[C@]12C [Example 1.73, 3-descladinosyl-11,12-dideoxy-6-O-methyl-3-oxo-12,11-(oxycarbonyl-(1-(quinoline-3-carbonitrile-4-methyl)-azetidin-3-yl)-imino)erythromycin A] | <0.063 | <0.063 | <0.063 | 0.125 (≈ 0.15 µM) | 2 (≈ 2.4 µM) |
| CC[C@H]1OC(=O)[C@H](C)C(=O)[C@H](C)[C@@H](O[C@@H]2O[C@H](C)C[C@H](N(C)C)[C@H]2O)[C@](C)(OC)C[C@@H](C)C(=O)[C@H](C)[C@H]2N(C3CN(Cc4c(Br)cnc5nccnc45)C3)C(=O)O[C@]12C [Example 1.74, 3-descladinosyl-11,12-dideoxy-6-O-methyl-3-oxo-12,11-(oxycarbonyl-(1-(7-bromopyrido[3,2-b]pyrazine-8-methyl)-azetidin-3-yl)imino)-erythromycin A] | <0.063 | <0.063 | <0.063 | 0.5 (≈ 0.562 µM) | 1 (≈ 1.12 µM) |
| CCC1OC(=O)C(C)C(=O)C(C)C(OC2OC(C)CC(N(C)C)C2O)C(C)(OC)CC(C)C(=O)C(C)C2N(C3CN(Cc4c(Br)cnc5ncccc45)C3)C(=O)OC12C (centres unmarked) [Example 1.75, 3-descladinosyl-11,12-dideoxy-6-O-methyl-3-oxo-12,11-(oxycarbonyl-(1-(3-bromo-1,8-naphthyridine-4-methyl)-azetidin-3-yl)-imino)-erythromycin A] | <0.063 | <0.063 | <0.063 | <0.063 | 1 (≈ 1.12 µM) |
| CCC1OC(=O)C(C)C(=O)C(C)C(OC2OC(C)CC(N(C)C)C2O)C(C)(OC)CC(C)C(=O)C(C)C2N(C3CN(Cc4c(Cl)cnc5ncccc45)C3)C(=O)OC12C (centres unmarked) [Example 1.76, 3-descladinosyl-11,12-dideoxy-6-O-methyl-3-oxo-12,11-(oxycarbonyl-(1-(3-chloro-1,8-naphthyridine-4-methyl)-azetidin-3-yl)-imino)-erythromycin A] | <0.063 | <0.063 | <0.063 | 0.125 (≈ 0.148 µM) | 0.5 (≈ 0.592 µM) |
| CCC1OC(=O)C(C)C(=O)C(C)C(OC2OC(C)CC(N(C)C)C2O)C(C)(OC)CC(C)C(=O)C(C)C2N(C3CN(Cc4ccncc4Br)C3)C(=O)OC12C (centres unmarked) [Example 1.77, 3-descladinosyl-11,12-dideoxy-6-O-methyl-3-oxo-12,11-(oxycarbonyl-(1-(3-bromopyridine-4-methyl)-azetidin-3-yl)-imino)-erythromycin A] | <0.063 | <0.063 | <0.063 | 1 (≈ 1.19 µM) | 0.5 (≈ 0.597 µM) |
| CCC1OC(=O)C(C)C(=O)C(C)C(OC2OC(C)CC(N(C)C)C2O)C(C)(OC)CC(C)C(=O)C(C)C2N(C3CN(Cc4ccncc4F)C3)C(=O)OC12C (centres unmarked) [Example 1.78, 3-descladinosyl-11,12-dideoxy-6-O-methyl-3-oxo-12,11-(oxycarbonyl-(1-(3-fluoropyridine-4-methyl)-azetidin-3-yl)-imino)-erythromycin A] | <0.063 | <0.063 | <0.063 | 4 (≈ 5.15 µM) | 1 (≈ 1.29 µM) |
| CCC1OC(=O)C(C)C(=O)C(C)C(OC2OC(C)CC(N(C)C)C2O)C(C)(OC)CC(C)C(=O)C(C)C2N(C3CN(Cc4ccncc4Cl)C3)C(=O)OC12C (centres unmarked) [Example 1.79, 3-descladinosyl-11,12-dideoxy-6-O-methyl-3-oxo-12,11-(oxycarbonyl-(1-(3-chloropyridine-4-methyl)-azetidin-3-yl)-imino)-erythromycin A] | <0.063 | <0.063 | <0.063 | 4 (≈ 5.04 µM) | 1 (≈ 1.26 µM) |
| CCC1OC(=O)C(C)C(=O)C(C)C(OC2OC(C)CC(N(C)C)C2O)C(C)(OC)CC(C)C(=O)C(C)C2N(C3CN(C(COC)c4ccnc5ncccc45)C3)C(=O)OC12C (stereo not drawn) [Example 1.80, 3-descladinosyl-11,12-dideoxy-6-O-methyl-3-oxo-12,11-(oxycarbonyl-(1-(2-(methoxy)-1S-(1,8-napthyridin-4-yl)-ethyl)-azetidin-3-yl)-imino)-erythromycin A] | <0.063 | 1 (≈ 1.17 µM) | 0.125 (≈ 0.146 µM) | 16 (≈ 18.7 µM) | 4 (≈ 4.68 µM) |
| CCC1OC(=O)C(C)C(=O)C(C)C(OC2OC(C)CC(N(C)C)C2O)C(C)(OC)CC(C)C(=O)C(C)C2N(C3CN(Cc4ccc(=O)n5ccccc45)C3)C(=O)OC12C (centres unmarked) [Example 1.82, 3-descladinosyl-11,12-dideoxy-6-O-methyl-3-oxo-12,11-(oxycarbonyl-(1-(4H-quinolizin-4-one-1-methyl)-azetidin-3-yl)-imino)-erythromycin A] | <0.063 | <0.063 | <0.063 | 4 (≈ 4.85 µM) | 0.5 (≈ 0.606 µM) |
| CCC1OC(=O)C(C)C(=O)C(C)C(OC2OC(C)CC(N(C)C)C2O)C(C)(OC)CC(C)C(=O)C(C)C2N(C3CN(Cc4cccn5nccc45)C3)C(=O)OC12C (centres unmarked) [Example 1.83, 3-descladinosyl-11,12-dideoxy-6-O-methyl-3-oxo-12,11-(oxycarbonyl-(1-(H-pyrazolo[1,5-a]pyridine-4-methyl)-azetidin-3-yl)-imino)-erythromycin A] | <0.063 | <0.063 | <0.063 | 4 (≈ 5.01 µM) | 1 (≈ 1.25 µM) |
| CCC1OC(=O)C(C)C(=O)C(C)C(OC2OC(C)CC(N(C)C)C2O)C(C)(OC)CC(C)C(=O)C(C)C2N(C3CN(Cc4ccnc5c(OC)cccc45)C3)C(=O)OC12C (centres unmarked) [Example 1.84, 3-descladinosyl-11,12-dideoxy-6-O-methyl-3-oxo-12,11-(oxycarbonyl-(1-(8-methoxyquinoline-4-methyl)-azetidin-3-yl)-imino)erythromycin A] | <0.063 | <0.063 | <0.063 | 8 (≈ 9.53 µM) | 2 (≈ 2.38 µM) |
| CCC1OC(=O)C(C)C(=O)C(C)C(OC2OC(C)CC(N(C)C)C2O)C(C)(OC)CC(C)C(=O)C(C)C2N(C3CN(Cc4c(OC)ccc5ccccc45)C3)C(=O)OC12C (centres unmarked) [Example 1.86, 3-descladinosyl-11,12-dideoxy-6-O-methyl-3-oxo-12,11-(oxycarbonyl-(1-(2-methoxynaphthalene-1-methyl)-azetidin-3-yl)-imino)-erythromycin A] | <0.063 | 0.125 (≈ 0.149 µM) | <0.063 | 1 (≈ 1.19 µM) | 1 (≈ 1.19 µM) |
